According to US20240150356A1, “Pyrimidine amide compounds and use thereof” (ALPHALA CO., LTD., priority 2019, published 2024):

tested on: Hep3B cells (hepatocellular carcinoma cell line); experiment: In vitro MTS cell viability assay (NCI-60 methodology), Hep3B; type: cell-based; details: Homo sapiens, 48 h, Table 6, MTS, 2 days drug incubation, 50% reduction vs time zero, read-out: Hep3B LC50
How it was run: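 Hep3B cells given five 2-fold dilutions of compound for 2 days, with viability by MTS measured at time zero and at end. LC50 is the concentration giving a 50% fall in viable cells relative to the start of treatment, per NCI-60 formula.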

CC(C)(C)c1ccc(-n2ncc3c(NC(=O)c4ccc([N+](=O)[O-])s4)nc(OCC(F)(F)C(F)F)nc32)cc1 [Compound 6-59, N-(1-(4-(tert-butyl)phenyl)-6-(2,2,3,3-tetrafluoropropoxy)-1H-pyrazolo[3,4-d]pyrimidin-4-yl)-5-nitrothiophene-2-carboxamide] and CCOCCOCCOc1nc(NC(=O)c2ccc([N+](=O)[O-])s2)c2cnn(-c3ccc(C(C)(C)C)cc3)c2n1 [Compound 6-61] are within 1.5-fold of each other in LC50: 0.5 µM for the first, 0.54 µM for the second.

CC(C)(C)c1ccc(-n2ncc3c(NC(=O)c4ccc([N+](=O)[O-])s4)nc(OCCN4CCOCC4)nc32)cc1 [Compound 6-60, N-(1-(4-(tert-butyl)phenyl)-6-(2-morpholinoethoxy)-1H-pyrazolo[3,4-d]pyrimidin-4-yl)-5-nitrothiophene-2-carboxamide] and CC(C)(C)c1ccc(-n2ncc3c(NC(=O)c4ccc([N+](=O)[O-])s4)nc(N4CCCC4)nc32)cc1 [Compound 6-62, N-(1-(4-(tert-butyl)phenyl)-6-(pyrrolidin-1-yl)-1H-pyrazolo[3,4-d]pyrimidin-4-yl)-5-nitrothiophene-2-carboxamide] are within 1.5-fold of each other in LC50: 0.89 µM for the first, 0.71 µM for the second.

Compared with CC(C)(C)c1ccc(-n2ncc3c(NC(=O)c4ccc([N+](=O)[O-])s4)nc(N4CCCCC4)nc32)cc1 [Compound 6-63, N-(1-(4-(tert-butyl)phenyl)-6-(piperidin-1-yl)-1H-pyrazolo[3,4-d]pyrimidin-4-yl)-5-nitrothiophene-2-carboxamide], CC1CCCN(c2nc(NC(=O)c3ccc([N+](=O)[O-])s3)c3cnn(-c4ccc(C(C)(C)C)cc4)c3n2)C1 (stereo not shown) [Compound 6-64, N-(1-(4-(tert-butyl)phenyl)-6-(3-methylpiperidin-1-yl)-1H-pyrazolo[3,4-d]pyrimidin-4-yl)-5-nitrothiophene-2-carboxamide] is 1.8-fold lower in LC50: 1.92 µM for the first, 1.07 µM for the second.

First: CC(C)(C)c1ccc(-n2ncc3c(NC(=O)c4ccc([N+](=O)[O-])s4)nc(N4CC(F)(F)C4)nc32)cc1 [Compound 6-65, N-(1-(4-(tert-butyl)phenyl)-6-(3,3-difluoroazetidin-1-yl)-1H-pyrazolo[3,4-d]pyrimidin-4-yl)-5-nitrothiophene-2-carboxamide]
Second: CC(C)(C)c1ccc(-n2ncc3c(NC(=O)c4ccc([N+](=O)[O-])s4)nc(N4CCC(F)(F)CC4)nc32)cc1 [Compound 6-67, N-(1(4-(tert-butyl)phenyl)-6-(4,4-difluoropiperidin-1-yl)-1H-pyrazolo[3,4-d]pyrimidin-4-yl)-5-nitrothiophene-2-carboxamide]
The LC50 of the first is 2.3-fold lower: 0.32 µM for the first, 0.73 µM for the second.

Going from CC(C)(C)c1ccc(-n2ncc3c(NC(=O)c4ccc([N+](=O)[O-])s4)nc(N4CCC[C@H]4C(=O)O)nc32)cc1 [Compound 6-70, (1-(4-(tert-butyl)phenyl)-4-(5-nitrothiophene-2-carboxamido)-1H-pyrazolo[3,4-d]pyrimidin-6-yl)-L-proline] to Cc1ccn(-c2nc(NC(=O)c3ccc([N+](=O)[O-])s3)c3cnn(-c4ccc(C(C)(C)C)cc4)c3n2)n1 [Compound 6-77, N-(1-(4-(tert-butyl)phenyl)-6-(3-methyl-1H-pyrazol-1-yl)-1H-pyrazolo[3,4-d]pyrimidin-4-yl)-5-nitrothiophene-2-carboxamide], the LC50 falls from over 1.25 µM to 0.25 µM.

First: CCOCCOCCOC[C@@H]1CCCN1c1nc(NC(=O)c2ccc([N+](=O)[O-])s2)c2cnn(-c3ccc(C(C)(C)C)cc3)c2n1 [Compound 6-72, (S)—N-(1-(4-(tert-butyl)phenyl)-6-(2-((2-(2-ethoxyethoxy)ethoxy)methyl)pyrrolidin-1-yl)-1H-pyrazolo[3,4-d]pyrimidin-4-yl)-5-nitrothiophene-2-carboxamide]
Second: CCOCCOCCOc1ccc(-c2nc(NC(=O)c3ccc([N+](=O)[O-])s3)c3cnn(-c4ccc(C(C)(C)C)cc4)c3n2)cn1 [Compound 6-83, N-(1-(4-(ter-butyl)phenyl)-6-(6-(2-(2-ethoxyethoxy)ethoxy)pyridin-3-yl)-1H-pyrazolo[3,4-d]pyrimidin-4-yl)-5-nitrothiophene-2-carboxamide]
The LC50 of the first is 1.6-fold higher: 0.67 µM for the first, 0.41 µM for the second.

Going from CC(C)(C)c1ccc(-n2ncc3c(NC(=O)c4ccc([N+](=O)[O-])s4)nc(N4CCN(C(C)(C)C)CC4)nc32)cc1 [Compound 6-73] to CC(C)(C)c1ccc(-n2ncc3c(NC(=O)c4ccc([N+](=O)[O-])s4)nc(-n4ccnc4)nc32)cc1 [Compound 6-74, N-(1-(4-(tert-butyl)phenyl)-6-(1H-imidazol-1-yl)-1H-pyrazolo[3,4-d]pyrimidin-4-yl)-5-nitrothiophene-2-carboxamide], the LC50 falls from 0.65 µM to 0.33 µM (2-fold).

CC(C)(C)c1ccc(-n2ncc3c(NC(=O)c4ccc([N+](=O)[O-])s4)nc(-c4nnc(C(C)(C)C)o4)nc32)cc1 [Compound 6-76, N-(6-(5-(tert-butyl)-1,3,4-oxadiazol-2-yl)-1-(4-(tert-butyl)phenyl)-1H-pyrazolo[3,4-d]pyrimidin-4-yl)-5-nitrothiophene-2-carboxamide] and COc1ccc(-c2nc(NC(=O)c3ccc([N+](=O)[O-])s3)c3cnn(-c4ccc(C(C)(C)C)cc4)c3n2)cn1 [Compound 6-82, N-(1-(4-(tert-butyl)phenyl)-6-(6-methoxypyridin-3-yl)-1H-pyrazolo[3,4-d]pyrimidin-4-yl)-5-nitrothiophene-2-carboxamide] are within 1.5-fold of each other in LC50: 0.31 µM for the first, 0.38 µM for the second.

Going from CC(C)(C)c1ccc(-n2ncc3c(NC(=O)c4ccc([N+](=O)[O-])s4)nc(-n4cc(C(F)(F)F)cn4)nc32)cc1 [Compound 6-78, N-(1-(4-(ter-butyl)phenyl)-6-(4-(trifluoromethyl)-1H-pyrazol-1-yl)-1H-pyrazolo[3,4-d]pyrimidin-4-yl)-5-nitrothiophene-2-carboxamide] to CC(C)(C)c1ccc(-c2nc(NC(=O)c3ccc([N+](=O)[O-])s3)c3cnn(-c4ccc(OC(F)(F)F)cc4)c3n2)cc1 [Compound 6-86, N-(6-(4-(tert-butyl)phenyl)-1-(4-(trifluoromethoxy)phenyl)-1H-pyrazolo[3,4-d]pyrimidin-4-yl)-5-nitrothiophene-2-carboxamide], the LC50 rises from 0.57 µM to 3.46 µM (6.1-fold).

CC(C)(C)c1ccc(-n2ncc3c(NC(=O)c4ccc([N+](=O)[O-])s4)nc(-c4ccccc4F)nc32)cc1 [Compound 6-79, N-(1-(4-(tert-butyl)phenyl)-6-(2-fluorophenyl)-1H-pyrazolo[3,4-d]pyrimidin-4-yl)-5-nitrothiophene-2-carboxamide] and CC(C)(C)c1ccc(-n2ncc3c(NC(=O)c4ccc([N+](=O)[O-])s4)nc(-c4cccc(F)c4)nc32)cc1 [Compound 6-80, N-(1-(4-(tert-butyl)phenyl)-6-(3-fluorophenyl)-1H-pyrazolo[3,4-d]pyrimidin-4-yl)-5-nitrothiophene-2-carboxamide] are within 1.5-fold of each other in LC50: 0.69 µM for the first, 0.78 µM for the second.

Going from CC(C)(C)c1ccc(-n2ncc3c(NC(=O)c4ccc([N+](=O)[O-])s4)nc(-c4ccc(F)cc4)nc32)cc1 [Compound 6-81, N-(1-(4-(tert-butyl)phenyl)-6-(4-fluorophenyl)-1H-pyrazolo[3,4-d]pyrimidin-4-yl)-5-nitrothiophene-2-carboxamide] to CCC(C)(C)c1ccc(-c2nc(NC(=O)c3ccc([N+](=O)[O-])s3)c3cnn(-c4ccc(OC(F)(F)F)cc4)c3n2)cc1 [Compound 6-87], the LC50 rises from 0.94 µM to over 2 µM.

Compared with O=C(Nc1nc(-c2ccc(C(F)(F)F)cc2)nc2c1cnn2-c1ccc(OC(F)(F)F)cc1)c1ccc([N+](=O)[O-])s1 [Compound 6-88, 5-nitro-N-(1-(4-(trifluoromethoxy)phenyl)-6-(4-(trifluormethyl)phenyl)-1H-pyrazolo[3,4-d]pyrimidin-4-yl)thiophene-2-carboxamide], O=C(Nc1nc(-c2ccc(Cl)cc2)nc2c1cnn2-c1cccc(F)c1)c1ccc([N+](=O)[O-])s1 [Compound 6-91, N-(6-(4-chlorophenyl)-1-(3-fluorophenyl)-1H-pyrazolo[3,4-d]pyrimidin-4-yl)-5-nitrothiophene-2-carboxamide] is 2.3-fold lower in LC50: 0.42 µM for the first, 0.18 µM for the second.

O=C(Nc1nc(-c2ccc3c(c2)OCO3)nc2c1cnn2-c1cccc(F)c1)c1ccc([N+](=O)[O-])s1 [Compound 6-92, N-(6-(benzo[d][1,3]dioxol-5-yl)-1-(3-fluorophenyl)-1H-pyrazolo[3,4-d]pyrimidin-4-yl)-5-nitrothiophene-2-carboxamide] and COCCN(C)c1ccc(-c2nc(NC(=O)c3ccc([N+](=O)[O-])s3)c3cnn(-c4cccc(F)c4)c3n2)cn1 [Compound 6-93] are within 1.5-fold of each other in LC50: 0.45 µM for the first, 0.4 µM for the second.

COCCOc1ccc(-c2nc(NC(=O)c3ccc([N+](=O)[O-])s3)c3cnn(-c4cccc(F)c4)c3n2)cn1 [Compound 6-94, N-(1-(3-fluorophenyl)-6-(6-(2-methoxyethoxy)pyridin-3-yl)-1H-pyrazolo[3,4-d]pyrimidin-4-yl)-5-nitrothiophene-2-carboxamide] and CCOCCOc1ccc(-c2nc(NC(=O)c3ccc([N+](=O)[O-])s3)c3cnn(-c4cccc(F)c4)c3n2)cn1 [Compound 6-95, N-(6-(6-(2-ethoxyethoxy)pyridin-3-yl)-1-(3-fluorophenyl)-1H-pyrazolo[3,4-d]pyrimidin-4-yl)-5-nitrothiophene-2-carboxamide] are within 1.5-fold of each other in LC50: 0.28 µM for the first, 0.29 µM for the second.

Going from CCOCCOCCOc1ccc(-c2nc(NC(=O)c3ccc([N+](=O)[O-])s3)c3cnn(-c4cccc(F)c4)c3n2)cn1 [Compound 6-96, N-(6-(6-(2-(2-ethoxyethoxy)ethoxy)pyridin-3-yl)-1-(3-fluorophenyl)-1H-pyrazolo[3,4-d]pyrimidin-4-yl)-5-nitrothiophene-2-carboxamide] to O=C(Nc1nc(N2CCC(F)(F)C2)nc2c1cnn2-c1ccc(F)cc1)c1ccc([N+](=O)[O-])s1 [Compound 6-97, N-(6-(3,3-difluoropyrrolidin-1-yl)-1-(4-fluorophenyl)-1H-pyrazolo[3,4-d]pyrimidin-4-yl)-5-nitrothiophene-2-carboxamide], the LC50 rises from 0.35 µM to 0.57 µM (1.6-fold).

same assay, conditions: Homo sapiens, 48 h, read-out: Hep3B LC50 (uM)

Compound CC(C)(C)[Si](C)(C)OC1CN(c2nc(NC(=O)c3ccc([N+](=O)[O-])s3)c3cnn(-c4ccc(OC(F)(F)F)cc4)c3n2)C1 [Compound 6-84] has an LC50 of 1.13 µM.
